Laboratory results reported in US7943651B2, “Compounds” (Glaxo Group Limited, priority 2006, dated 2011).

Test system: NFkB activity
Test: Glucocorticoid Mediated Transrepression of NFkB Activity
Format: cell-based
Details: Human A549 lung epithelial cells, NFkB dependent ELAM promoter alkaline phosphatase reporter, 3 ng/ml TNFα
Description: Glucocorticoid Mediated Transrepression of NFkB Activity
Human A549 lung epithelial cells were engineered to contain a secreted placental alkaline phosphatase gene under the control of the distal region of the NFkB dependent ELAM promoter as previously described in Ray, K. P., Farrow, S., Daly, M., Talabot, F. and Searle, N. “Induction of the E-selectin promoter by interleukin 1 and tumour necrosis factor alpha, and inhibition by glucocorticoids” Biochemical Journal (1997) 328: 707-15.
Compounds were solvated and diluted in DMSO, and transferred directly into assay plates such that the final concentration of DMSO was 0.7%. Following the addition of cells (40K per well), plates were incubated for 1 hr prior to the addition of 3 ng/ml human recombinant TNFα. Following continued incubation for 16 hr, alkaline phosphatase activity was determined by measuring the change in optical density at 405 nm with time following the addition of 0.7 volumes of assay buffer (1 mg/ml p-nitrophenylphosphate dissolved in 1M diethanolamine, 0.28M NaCl, 0.5 mM MgCl2). Dose response curves were constructed from which EC50 values were estimated.

| EC50 | SMILES |
| --- | --- |
| < 3.16 nM | COc1ccc(F)cc1C(C)(C)CC(O)(CNc1cc(C)cc2c1cnn2-c1cccc(C(=O)NCC(N)=O)c1)C(F)(F)F (racemic) [Example 1, N-(2-Amino-2-oxoethyl)-3-(4-{[4-[5-fluoro-2-(methyloxy)phenyl]-2-hydroxy-4-methyl-2-(trifluoromethyl)pentyl]amino}-6-methyl-1H-indazol-1-yl)benzamide] |
| < 3.16 nM | COc1ccc(F)cc1C(C)(C)CC(O)(CNc1cc(C)cc2c1cnn2-c1cccc(C(=O)NC(C)(C)C(N)=O)c1)C(F)(F)F (racemic) [Example 5, N-(2-Amino-1,1-dimethyl-2-oxoethyl)-3-(4-{[4-[5-fluoro-2-(methyloxy)phenyl]-2-hydroxy-4-methyl-2-(trifluoromethyl)pentyl]amino}-6-methyl-1H-indazol-1-yl)benzamide] |
| < 3.16 nM | COc1ccc(F)cc1C(C)(C)CC(O)(CNc1cc(C)cc2c1cnn2-c1cccc(C(=O)N(C)CC(N)=O)c1)C(F)(F)F (single isomer, unassigned) [Example 2-A, N-(2-amino-2-oxoethyl)-3-(4-{[4-[5-fluoro-2-(methyloxy)phenyl]-2-hydroxy-4-methyl-2-(trifluoromethyl)pentyl]amino}-6-methyl-1H-indazol-1-yl)-N-methylbenzamide] |
| < 3.16 nM | COc1ccc(F)cc1C(C)(C)CC(O)(CNc1cc(C)cc2c1cnn2-c1cccc(C(=O)N[C@H](C)C(N)=O)c1)C(F)(F)F (single isomer, unassigned) [Example 3-A] |
| < 3.16 nM | COc1ccc(F)cc1C(C)(C)CC(O)(CNc1cc(C)cc2c1cnn2-c1cccc(C(=O)NC(C)(C)C(N)=O)c1)C(F)(F)F (single isomer, unassigned) [Example 5-A, N-(2-amino-1,1-dimethyl-2-oxoethyl)-3-(4-{[4-[5-fluoro-2-(methyloxy)phenyl]-2-hydroxy-4-methyl-2-(trifluoromethyl)pentyl]amino}-6-methyl-1H-indazol-1-yl)benzamide] |
| < 3.16 nM | COc1ccc(F)cc1C(C)(C)CC(O)(CNc1cc(C)cc2c1cnn2-c1cccc(C(=O)N2CCC[C@H]2C(N)=O)c1)C(F)(F)F (stereo partly drawn) [Example 6, 1-{[3-(4-{[4-[5-Fluoro-2-(methyloxy)phenyl]-2-hydroxy-4-methyl-2-(trifluoromethyl)pentyl]amino}-6-methyl-1H-indazol-1-yl)phenyl]carbonyl}-L-prolinamide] |
| < 3.16 nM | Cc1cc(NCC(O)(CC(C)(C)c2cc(F)ccc2O)C(F)(F)F)c2cnn(-c3cccc(C(=O)N(C)CC(N)=O)c3)c2c1 (stereo not shown) [Example 9, N-(2-Amino-2-oxoethyl)-3-(4-{[4-(5-fluoro-2-hydroxyphenyl)-2-hydroxy-4-methyl-2-(trifluoromethyl)pentyl]amino}-6-methyl-1H-indazol-1-yl)-N-methylbenzamide] |
| < 3.16 nM | Cc1cc(NCC(O)(CC(C)(C)c2cc(F)ccc2O)C(F)(F)F)c2cnn(-c3cccc(C(=O)NCC(N)=O)c3)c2c1 (stereo not shown) [Example 10, N-(2-Amino-2-oxoethyl)-3-(4-{[4-(5-fluoro-2-hydroxyphenyl)-2-hydroxy-4-methyl-2-(trifluoromethyl)pentyl]amino}-6-methyl-1H-indazol-1-yl)benzamide] |
| < 3.16 nM | COc1ccc(F)cc1C(C)(C)CC(O)(CNc1cc(C)cc2c1cnn2-c1cccc(C(=O)N(C)[C@@H](C)C(N)=O)c1)C(F)(F)F (stereo partly drawn) [Example 14, N-[(1S)-2-Amino-1-methyl-2-oxoethyl]-3-(4-{[4-[5-fluoro-2-(methloxy)phenyl]-2-hydroxy-4-methyl-2-(trifluoromethyl)pentyl]amino}-6-methyl-1H-indazol-1-yl)-N-methylbenzamide] |

Continued, compound first:

| SMILES | EC50 |
| --- | --- |
| COc1ccc(F)cc1C(C)(C)CC(O)(CNc1cc(C)cc2c1cnn2-c1cccc(C(=O)N[C@H](C)C(N)=O)c1)C(F)(F)F (mixture of isomers) [Example 3, N-[(1R)-2-Amino-1-methyl-2-oxoethyl]-3-(4-{[4-[5-fluoro-2-(methyloxy)phenyl]-2-hydroxy-4-methyl-2-(trifluoromethyl)pentyl]amino}-6-methyl-1H-indazol-1-yl)benzamide] | < 3.16 nM |
| COc1ccc(F)cc1C(C)(C)CC(O)(CNc1cc(C)cc2c1cnn2-c1cccc(C(=O)N2CCC[C@@H]2C(N)=O)c1)C(F)(F)F (mixture of isomers) [Example 7, 1-{[3-(4-{[4-[5-Fluoro-2-(methyloxy)phenyl]-2-hydroxy-4-methyl-2-(trifluoromethyl)pentyl]amino}-6-methyl-1H-indazol-1-yl)phenyl]carbonyl}-D-prolinamide] | < 3.16 nM |
| COc1ccc(F)cc1C(C)(C)CC(O)(CNc1cc(C)cc2c1cnn2-c1cccc(C(=O)N(C)CC(N)=O)c1)C(F)(F)F (racemic) [Example 2, N-(2-Amino-2-oxoethyl)-3-(4-{[4-[5-fluoro-2-(methyloxy)phenyl]-2-hydroxy-4-methyl-2-(trifluoromethyl)pentyl]amino}-6-methyl-1H-indazol-1-yl)-N-methylbenzamide] | < 3.16 nM |
| COc1ccc(F)cc1C(C)(C)CC(O)(CNc1cc(C)cc2c1cnn2-c1cccc(C(=O)NCC(N)=O)c1)C(F)(F)F (single isomer, unassigned) [Example 1-A, N-(2-amino-2-oxoethyl)-3-(4-{[4-[5-fluoro-2-(methyloxy)phenyl]-2-hydroxy-4-methyl-2-(trifluoromethyl)pentyl]amino}-6-methyl-1H-indazol-1-yl)benzamide] | < 3.16 nM |
| COc1ccc(F)cc1C(C)(C)C[C@@](O)(CNc1cc(C)cc2c1cnn2-c1cccc(C(=O)N2CCC[C@@H]2C(N)=O)c1)C(F)(F)F (single isomer, unassigned) [Example 7-A] | < 3.16 nM |
| COc1ccc(F)cc1C(C)(C)CC(O)(CNc1cc(C)cc2c1cnn2-c1cccc(C(=O)N[C@@H](C)C(N)=O)c1)C(F)(F)F (stereo partly drawn) [Example 4, N-[(1S)-2-Amino-1-methyl-2-oxoethyl]-3-(4-{[4-[5-fluoro-2-(methyloxy)phenyl]-2-hydroxy-4-methyl-2-(trifluoromethyl)pentyl]amino}-6-methyl-1H-indazol-1-yl)benzamide] | < 3.16 nM |
| COc1ccc(F)cc1C(C)(C)CC(O)(CNc1cc(C)cc2c1cnn2-c1cccc(C(=O)N[C@@H](CO)C(N)=O)c1)C(F)(F)F (stereo partly drawn) [Example 8, N-[(1S)-2-Amino-1-(hydroxymethyl)-2-oxoethyl]-3-(4-{[4-[5-fluoro-2-(methloxy)phenyl]-2-hydroxy-4-methyl-2-(trifluoromethyl)pentyl]amino}-6-methyl-1H-indazol-1-yl)benzamide] | < 3.16 nM |
| Cc1cc(NCC(O)(CC(C)(C)c2cc(F)ccc2O)C(F)(F)F)c2cnn(-c3cccc(C(=O)N[C@H](C)C(N)=O)c3)c2c1 (stereo partly drawn) [Example 11, N-[(1R)-2-Amino-1-methyl-2-oxoethyl]-3-(4-{[4-(5-fluoro-2-hydroxyphenyl)-2-hydroxy-4-methyl-2-(trifluoromethyl)pentyl]amino}-6-methyl-1H-indazol-1-yl)benzamide] | < 3.16 nM |
| Cc1cc(NCC(O)(CC(C)(C)c2cc(F)ccc2O)C(F)(F)F)c2cnn(-c3cccc(C(=O)N4CCC[C@@H]4C(N)=O)c3)c2c1 (stereo partly drawn) [Example 12, 1-{[3-(4-{[4-(5-Fluoro-2-hydroxyphenyl)-2-hydroxy-4-methyl-2-(trifluoromethyl)pentyl]amino}-6-methyl-1H-indazol-1-yl)phenyl]carbonyl}-D-prolinamide] | < 3.16 nM |
| CNC(=O)CNC(=O)c1cccc(-n2ncc3c(NCC(O)(CC(C)(C)c4cc(F)ccc4OC)C(F)(F)F)cc(C)cc32)c1 (stereo not shown) [Example 13, 3-(4-{[4-[5-Fluoro-2-(methyloxy)phenyl]-2-hydroxy-4-methyl-2-(trifluoromethyl)pentyl]amino}-6-methyl-1H-indazol-1-yl)-N-[2-(methylamino)-2-oxoethyl]benzamide] | < 3.16 nM |
| COc1ccc(F)cc1C(C)(C)CC(O)(CNc1cc(C)cc2c1cnn2-c1cccc(C(=O)N(C)[C@H](C)C(N)=O)c1)C(F)(F)F (stereo partly drawn) [Example 15, N-[(1R)-2-Amino-1-methyl-2-oxoethyl]-3-(4-{[4-[5-fluoro-2-(methloxy)phenyl]-2-hydroxy-4-methyl-2-(trifluoromethyl)-pentyl]amino}-6-methyl-1H-indazol-1-yl)-N-methylbenzamide] | < 3.16 nM |
| COc1ccc(F)cc1C(C)(C)CC(O)(CNc1cc(C)cc2c1cnn2-c1cccc(C(=O)N[C@H](CO)C(N)=O)c1)C(F)(F)F (stereo partly drawn) [Example 16, N-[(1R)-2-Amino-1-(hydroxymethyl)-2-oxoethyl]-3-(4-{[4-[5-fluoro-2-(methloxy)phenyl]-2-hydroxy-4-methyl-2-(trifluoromethyl)pentyl]amino}-6-methyl-1H-indazol-1-yl)benzamide] | < 3.16 nM |
| Cc1cc(NC[C@](O)(CC(C)(C)c2cc(F)ccc2O)C(F)(F)F)c2cnn(-c3cccc(C(=O)N4CCC[C@@H]4C(N)=O)c3)c2c1 [Example 17, 1-{[3-(4-{[(2R)-4-(5-Fluoro-2-hydroxyphenyl)-2-hydroxy-4-methyl-2-(trifluoromethyl)pentyl]amino}-6-methyl-1H-indazol-1-yl)phenyl]carbonyl}-D-prolinamide] | < 3.16 nM |
